Like-named read-outs stand apart in the source and are kept apart here.
How the values were obtained:
[1] = test system: Bee Brain Activity for Ac-luciferin (esterase activity of bee brain extract); assay type: biochemical, honey bees; conditions: for % activity: bee brain extract; for I50 (concentration of inhibitor which gives a 50% decrease in enzymatic activity as measured by bioluminescence): bee brain, Ac-luciferin substrate, 5 min
Experimental: (§1) 1. Sample is preincubated with a predetermined quantity (dilution 1:200) of brain preparation for 5 minutes.
(§2) 2. Luciferin acetate (200 pmoles) is added to the incubation mixture for additional 5 minutes.
(§3) 3. A portion of this […] mixture (100 μl) is withdrawn and added to the luciferase and ATP reaction mixture (1 ml).
(§4) 4. Bioluminescence reading for 2-5 seconds is monitored.
(§5) 5. The reading of the pesticide sample is compared to the control sample to quantitate the percent inhibition of the sample (see Tables 3, 4, 5 and 6) .
(§6) Insects are stored from at -20° C. or below. Insect heads are collected by dissection with a scalpel and placed in a 50 ml beaker containing approximately 15 ml ice cold 0.07M phosphate buffer, pH 7.0, containing 1 mM EDTA (ethylenediaminetetra acetic acid) and 1 μM phenylthiourea. The insect heads are gently homogenized at low speed in a Tekmar Tissumizer. Aliquots of this crude extract are transferred to microcentrifuge tubes and centrifuged. The supernatant is retained and applied to a sephadex G-25 column equilibrated with 0.07M phosphate buffer, pH 7.0, containing 1 mM EDTA and 1 μM phenylthiourea. Fractions are collected every 2 minutes and monitored for esterase activity using luciferin acetate as a substrate and measuring bioluminescence. Fractions with esterase activity are pooled and used as the insect head extract for use in the pesticide assay.
(§7) Notes: Brain extracts have been prepared primarily from honey bees, but also has been extracted from silkworm and blowflies. Protein concentration of the bee head extract is between 2 to 5 mg/ml. For the assay, 5 to 10 μl is used per assay.
(§8) 1. To 13×100 mm test tubes add 2 ml 0.07M phosphate buffer, pH 7.0. Add 25 μl positive pesticide control (organophosphate and/or carbamate pesticide), 25 μl water to negative control tube and 25 μl of test sample to another tube. If test sample contains solvent other than water, then use this solvent as the negative control tube.
(§9) 2. Add insert brain extract (5 or 10 μl depending on activity) to the 2 ml incubation mixture in step 1, vortex and incubate at 35° C. in temperature block for 10 minutes. Use timer with alarm to monitor time.
(§10) 3. At 10 minutes, add 25 μl 8.25 μM luciferin acetate solution to 2 ml incubation mixture in step 2. Reset timer to zero and restart timer.
(§11) 4. At 5 minutes, take 100 μl portion from each sample. Use separate pipette tip for each sample and add the 100 μl portion to separate 13×100 mm test tubes containing 1 ml of bioluminescence buffer.
(§12) 5. Add 30 μl ATP solution followed by 30 μl luciferase solution to one of the assay tubes in step 4. Vortex and measure bioluminescence for 2 to 5 seconds. Record value and proceed to the next tubes as above.
6. […] In the positive samples the esterolitic activity of the bee extract will be inhibited and less luciferin will form giving a low bioluminescent reading. Divide sample reading or positive control by zero control and multiply to 100 to get percent inhibition.

[2] = test system: Silkworm Brain Activities; assay: Bioluminescence pesticide assay: inhibition of silkworm brain activities; assay type: biochemical; conditions: pesticide at 25 PPB
Experimental: as §1, §2, §3, §4, §5, §6, §7, §8, §9, §10, §11, §12
6. Zero control bioluminescence reaction will be uninhibited by pesticide and will have a high bioluminescence reading. In the positive samples the esterolitic activity of the bee extract will be inhibited and less luciferin will form giving a low bioluminescent reading. Divide sample reading or positive control by zero control and multiply to 100 to get percent inhibition.

| SMILES | % activity ([1]; 3.125 ppb pesticide) | % activity ([1]; 6.25 ppb pesticide) | % activity ([1]; 12.5 ppb pesticide) | % activity ([1]; 25 ppb pesticide) | I50 (concentration of inhibitor which gives a 50% decrease in enzymatic activity as measured by bioluminescence) [1] | % Inhibition [2] | % activity ([1]; 0.625 ppb pesticide) | % activity ([1]; 1.25 ppb pesticide) | % activity ([1]; 2.5 ppb pesticide) | further results |
| --- | --- | --- | --- | --- | --- | --- | --- | --- | --- | --- |
| CNC(=O)ON=C(C)SC [Methomyl] | 45% | 16% | 20% | 12% | 4 ppb | – | – | – | – | – |
| CNC(=O)Oc1cccc2c1OC(C)(C)C2 [Carbofuran] | – | 59% | 41% | 32% | 8 ppb | – | – | – | – | % activity ([1]; 50 ppb pesticide): 22% |
| CCOC(=O)CC(SP(=S)(OC)OC)C(=O)OCC (stereo not shown) [Malathion] | – | 53% | 50% | 27% | 6 ppb | – | – | – | – | % activity ([1]; 50 ppb pesticide): 27% |
| CC[S+]([O-])CCSP(=O)(OC)OC (stereo not shown) [Oxydemeton-methyl] | – | – | – | 21% | 1 ppb | 0% | 43% | 47% | 37% | % activity ([1]; 0.3125 ppb pesticide): 90% |
| CCOP(=S)(OCC)Oc1cc(C)nc(C(C)C)n1 [Diazinon] | – | – | – | 40% | 15 ppb | 0% | – | – | – | % activity ([1]; 100 ppb pesticide): 28% |
| COP(=S)(OC)Oc1ccc([N+](=O)[O-])cc1 [Methyl parathion] | – | – | – | – | 1 ppb | 0% | 62% | 40% | 23% | – |
| COP(=O)(OC)OC(Br)C(Cl)(Cl)Br (stereo not shown) [Naled] | – | – | – | – | 0.05 ppb | 98.0% | 29% | – | – | % activity ([1]; 0.031 ppb pesticide): 50%; % activity ([1]; 0.125 ppb pesticide): 30%; % activity ([1]; 0.250 ppb pesticide): 25% |
| COC(=O)C=C(C)OP(=O)(OC)OC [Mevinphos] | 12% | 9% | – | – | 2 ppb | 50% | 52% | 48% | 24% | % activity ([1]; 0.3125 ppb pesticide): 64% |
| CNC(=O)Oc1ccccc1OC(C)C [Propoxur] | – | – | 43% | 44% | 10 ppb | – | – | – | – | % activity ([1]; 3.1 ppb pesticide): 62%; % activity ([1]; 62.5 ppb pesticide): 29%; % activity ([1]; 125.0 ppb pesticide): 27% |
| CCOP(=S)(OCC)SCSP(=S)(OCC)OCC [Ethion] | – | – | – | – | 2 ppb | 77.0% | 71% | 65% | 37% | % activity ([1]; 0.3125 ppb pesticide): 84% |
| CCOP(=S)(OCC)SCCSCC [Disulfoton] | 66% | 47% | 35% | 19% | 5 ppb | 25% | – | – | – | – |
| CCOP(=S)(OCC)Oc1nc(Cl)c(Cl)cc1Cl [Chlorpyrifos] | 13% | 10% | – | – | 1 ppb | – | 68% | 34% | 24% | – |
| COP(=O)(OC)OC=C(Cl)Cl [DDVP] | – | – | – | – | 0.004 ppb | 100.0% | – | – | – | % activity ([1]; 0.0013 ppb pesticide): 74%; % activity ([1]; 0.0023 ppb pesticide): 49%; % activity ([1]; 0.0028 ppb pesticide): 60%; % activity ([1]; 0.0057 ppb pesticide): 52%; % activity ([1]; 0.011 ppb pesticide): 25% |
| CNC(=O)Oc1cccc2c1OC(C)(C)O2 [Bendocarb] | – | – | 50% | 26% | 12 ppb | – | – | – | – | % activity ([1]; 50 ppb pesticide): 18%; % activity ([1]; 100 ppb pesticide): 11% |
| CCOP(=S)(OCC)SCSCC [Phorate] | 23% | 8% | 3% | – | 2 ppb | 50.5% | – | 70% | 29% | – |

From patent publication US5283180A, “Bioluminescence method for the determination of pesticides” (priority 1992, dated 1994)
